Measured values as given in PubChem BioAssay AID1259408 (Genetic Toxicology Data Bank (GENE-TOX), 2018).
The source made the active and inactive calls. How the calls were made is not given here.

System: GENE-TOX genotoxicity assays, various organisms and cells
Test: GENE-TOX mutagenicity studies
Conditions: for call: Assay Type: In vivo carcinogenicity studies, Assay Code: CCG+
[1] = Species/Cell Type: Nonhuman, Evaluation Type: Evaluation A (Pre-1980)
[2] = Species/Cell Type: Nonhuman, Assay Type: Sister-chromatid exchange (SCE) in vitro, Assay Code: SC2T, Evaluation Type: Evaluation B (Post-1980)

For `COS(C)(=O)=O`, the mutagenic call (Species/Cell Type: Arabidopsis species, Assay Type: Gene mutation, Assay Code: ARM+, Evaluation Type: Evaluation A (Pre-1980)) was “active; positive”, the mutagenic call (Species/Cell Type: Aspergillus nidulans, Assay Type: Reverse gene mutation, Assay Code: ASR+, Evaluation Type: Evaluation A (Pre-1980)) was “active; positive” and the mutagenic call (Species/Cell Type: Chinese hamster lung (V79) cells, Assay Type: Forward gene mutation at the HPRT or ouabain locus, Assay Code: V79+, Evaluation Type: Evaluation A (Pre-1980)) was “active; positive”. The mutagenic call (Species/Cell Type: Chinese hamster ovary (CHO) cells, Assay Type: Forward gene mutation at the HPRT locus, Assay Code: CHO+D, Dose Response: With dose response, Evaluation Type: Evaluation A (Pre-1980)) was “active; positive”, the mutagenic call (Species/Cell Type: Drosophila melanogaster, Assay Type: Sex-linked recessive lethal gene mutation, Assay Code: SRL+, Evaluation Type: Evaluation A (Pre-1980)) was “active; positive” and the mutagenic call (Species/Cell Type: Drosophila melanogaster, Sex: Male, Assay Type: Heritable translocation test, chromosome aberrations, Assay Code: DHT+, Evaluation Type: Evaluation A (Pre-1980)) was “active; positive”. For the same compound, the mutagenic call (Species/Cell Type: Escherichia coli WP2, Assay Type: Tryptophan reverse gene mutation, Assay Code: WP2+D, Dose Response: With dose response, Evaluation Type: Evaluation A (Pre-1980)) was “active; positive”, the mutagenic call (Species/Cell Type: Escherichia coli WP2 UVRA, Assay Type: Tryptophan reverse gene mutation, Assay Code: WPU+D, Dose Response: With dose response, Evaluation Type: Evaluation A (Pre-1980)) was “active; positive” and the mutagenic call (Species/Cell Type: Escherichia coli polA (W3119 vs P3478), Assay Type: Rec-assay, DNA effects (bacterial DNA repair), Assay Code: RE1+, Evaluation Type: Evaluation A (Pre-1980)) was “active; positive”. For the same compound, the mutagenic call (Species/Cell Type: Escherichia coli, Saccharomyces cerevisiae, Neurospora crassa, human lymphoid cells, Assay Type: Forward and reverse gene mutation, lethal mutation, mitotic recombination and gene conversion, chromosome effects, DNA e, Assay Code: HM9+, Evaluation Type: Evaluation A (Pre-1980)) was “active; positive”, the mutagenic call (Species/Cell Type: F1 mouse, Sex: Male, Assay Type: Sperm morphology, Assay Code: SPFT, Evaluation Type: Evaluation A (Pre-1980)) was “no conclusion” and the mutagenic call (Species/Cell Type: Glycine max (soybean), Assay Type: Gene mutation, Assay Code: GLM+, Evaluation Type: Evaluation A (Pre-1980)) was “active; positive”. The mutagenic call (Species/Cell Type: Hordeum vulgare (barley), Assay Type: Chromosome aberrations, Assay Code: HOC+, Evaluation Type: Evaluation A (Pre-1980)) was “active; positive”, the mutagenic call (Species/Cell Type: Hordeum vulgare (barley), Assay Type: Gene mutation, Assay Code: HOM+D, Dose Response: With dose response, Evaluation Type: Evaluation A (Pre-1980)) was “active; positive” and the mutagenic call (Species/Cell Type: Human diploid fibroblasts, Assay Type: Unscheduled DNA synthesis (UDS) in vitro, DNA effects, Assay Code: UDH+D, Dose Response: With dose response, Evaluation Type: Evaluation A (Pre-1980)) was “active; positive”. For the same compound, the mutagenic call (Species/Cell Type: Human lymphocytes or leukocytes, Assay Type: Chromosome aberrations in vivo, Assay Code: CY8+, Evaluation Type: Evaluation A (Pre-1980)) was “active; positive”, the mutagenic call (Species/Cell Type: Human lymphocytes, Assay Type: Micronucleus test in vitro, chromosome aberrations, Assay Code: MN7+, Evaluation Type: Evaluation A (Pre-1980)) was “active; positive” and the mutagenic call (Species/Cell Type: Human lymphocytes, Assay Type: Sister-chromatid exchange (SCE) in vitro, Assay Code: SCL+, Evaluation Type: Evaluation A (Pre-1980)) was “active; positive”. The mutagenic call (Species/Cell Type: Human, Assay Type: Sister-chromatid exchange (SCE) in vitro, Assay Code: SC1+D, Dose Response: With dose response, Evaluation Type: Evaluation A (Pre-1980)) was “active; positive”, the mutagenic call (Species/Cell Type: Mammalian germ cells, Sex: Male, Assay Type: Chromosome aberrations in vivo, Assay Code: CY9+, Evaluation Type: Evaluation A (Pre-1980)) was “active; positive” and the mutagenic call (Species/Cell Type: Mammalian oocytes or early embryo, Assay Type: Chromosome aberrations in vivo, Assay Code: CYO+D, Dose Response: With dose response, Evaluation Type: Evaluation A (Pre-1980)) was “active; positive”. The mutagenic call (Species/Cell Type: Mammalian polychromatic erythrocytes, Assay Type: Micronucleus test, chromosome aberrations, Assay Code: MNT+, Evaluation Type: Evaluation A (Pre-1980)) was “active; positive”, the mutagenic call (Species/Cell Type: Mouse germ cells, Sex: Male, Assay Type: Unscheduled DNA synthesis (UDS) in vivo, DNA effects, Assay Code: UDT+, Evaluation Type: Evaluation A (Pre-1980)) was “active; positive” and the mutagenic call (Species/Cell Type: Mouse lymphoma (L5178Y) cells, Assay Type: Forward gene mutation at the thymidine kinase (TK) locus, chromosome aberrations, Assay Code: L51+, Evaluation Type: Evaluation A (Pre-1980)) was “active; positive”. The mutagenic call (Species/Cell Type: Mouse, Sex: Female, Assay Type: Spot test, gene mutation, Assay Code: MST+, Evaluation Type: Evaluation A (Pre-1980)) was “active; positive”, the mutagenic call (Species/Cell Type: Mouse, Sex: Male, Assay Type: Heritable translocation test, chromosome aberrations, Assay Code: HTT+, Evaluation Type: Evaluation A (Pre-1980)) was “active; positive” and the mutagenic call (Species/Cell Type: Mouse, Sex: Male, Assay Type: Specific locus test, gene mutation, Assay Code: SLT+, Evaluation Type: Evaluation A (Pre-1980)) was “active; positive”. The mutagenic call (Species/Cell Type: Mouse, Sex: Male, Assay Type: Sperm morphology, Assay Code: SPI+, Evaluation Type: Evaluation A (Pre-1980)) was “active; positive”, the mutagenic call (Species/Cell Type: Neurospora crassa, Assay Type: Forward gene mutation, Assay Code: NEF+, Evaluation Type: Evaluation A (Pre-1980)) was “active; positive” and the call [1] was “active; positive”. The mutagenic call (Species/Cell Type: Nonhuman, Assay Type: Sister-chromatid exchange (SCE) in vitro, Assay Code: SC2+D, Dose Response: With dose response, Evaluation Type: Evaluation A (Pre-1980)) was “active; positive”, the mutagenic call (Species/Cell Type: Nonhuman, Assay Type: Sister-chromatid exchange (SCE) in vivo, Assay Code: SC3+D, Dose Response: With dose response, Evaluation Type: Evaluation A (Pre-1980)) was “active; positive” and the mutagenic call (Species/Cell Type: Rabbit, Sex: Male, Assay Type: Sperm morphology, Assay Code: SPRT, Evaluation Type: Evaluation A (Pre-1980)) was “no conclusion”. For the same compound, the mutagenic call (Species/Cell Type: Rat primary hepatocytes, Assay Type: Unscheduled DNA synthesis (UDS) in vitro, DNA effects, Assay Code: UDP+, Evaluation Type: Evaluation A (Pre-1980)) was “active; positive”, the mutagenic call (Species/Cell Type: Rodents, Sex: Male, Assay Type: Dominant lethal test, Assay Code: DLT+D, Dose Response: With dose response, Evaluation Type: Evaluation A (Pre-1980)) was “active; positive” and the mutagenic call (Species/Cell Type: Saccharomyces cerevisiae, Assay Type: Forward gene mutation, Assay Code: YEF+, Evaluation Type: Evaluation A (Pre-1980)) was “active; positive”. The mutagenic call (Species/Cell Type: Saccharomyces cerevisiae, Assay Type: Mitotic recombination or gene conversion, Assay Code: YEC+, Evaluation Type: Evaluation A (Pre-1980)) was “active; positive”, the mutagenic call (Species/Cell Type: Saccharomyces cerevisiae, Assay Type: Mitotic recombination or gene conversion, Assay Code: YEH+, Evaluation Type: Evaluation A (Pre-1980)) was “active; positive” and the mutagenic call (Species/Cell Type: Saccharomyces cerevisiae, Assay Type: Reverse gene mutation, Assay Code: YER+, Evaluation Type: Evaluation A (Pre-1980)) was “active; positive”. For the same compound, the mutagenic call (Species/Cell Type: Salmonella typhimurium (one or more of the five standard strains: TA98, TA100, TA1535, TA1537, and TA1538), Assay Type: Histidine reverse gene mutation, Ames assay, Assay Code: SAL+, Evaluation Type: Evaluation A (Pre-1980)) was “active; positive”, the mutagenic call (Species/Cell Type: Salmonella typhimurium, Assay Type: Forward and reverse gene mutation, body fluid assay, Assay Code: BFU-, Evaluation Type: Evaluation A (Pre-1980)) was “inactive; negative” and the mutagenic call (Species/Cell Type: Schizosaccharomyces pombe, Assay Type: Forward gene mutation, Assay Code: YEY+, Evaluation Type: Evaluation A (Pre-1980)) was “active; positive”. The mutagenic call (Species/Cell Type: Schizosaccharomyces pombe, Assay Type: Reverse gene mutation, Assay Code: YEZ+, Evaluation Type: Evaluation A (Pre-1980)) was “active; positive”, the mutagenic call (Species/Cell Type: Syrian hamster embryo (SA7/SHE) cells, Assay Type: Cell transformation, viral enhanced, Assay Code: CT7+, Evaluation Type: Evaluation A (Pre-1980)) was “active; positive” and the mutagenic call (Species/Cell Type: Syrian hamster embryo (SHE) cells, Assay Type: Cell transformation, focus assay, Assay Code: CTF+, Evaluation Type: Evaluation A (Pre-1980)) was “active; positive”. The mutagenic call (Species/Cell Type: Vicia faba, Assay Type: Chromosome aberrations, Assay Code: VIC+D, Dose Response: With dose response, Evaluation Type: Evaluation A (Pre-1980)) was “active; positive”.

In the case of `O=c1cc[nH]c(=O)[nH]1`, the mutagenic call (Species/Cell Type: Drosophila melanogaster, Assay Type: Sex-linked recessive lethal gene mutation, Assay Code: SRLT, Evaluation Type: Evaluation A (Pre-1980)) was “no conclusion”.

In the case of `COCCOC(C)=O`, the mutagenic call (Species/Cell Type: Mammalian polychromatic erythrocytes, Assay Type: Micronucleus test, chromosome aberrations, Assay Code: MNT-, Evaluation Type: Evaluation B (Post-1980)) was “inactive; negative”.

`C#C[C@]1(O)CC[C@H]2[C@@H]3CCc4cc(CC)ccc4[C@H]3CC[C@@]21C` (tested in a mixture with another compound) was tested, and the mutagenic call (Species/Cell Type: Rodents, Sex: Male, Assay Type: Dominant lethal test, Assay Code: DLTT, Evaluation Type: Evaluation A (Pre-1980)) was “no conclusion”.

With `CCCSP(=S)(OCC)Oc1ccc(SC)cc1` (configuration not stated) the mutagenic call [2] was “no conclusion”.

With `CCCCNC(=O)n1c(NC(=O)OC)nc2ccccc21` the mutagenic call (Species/Cell Type: Allium cepa, Assay Type: Chromosome aberrations, Assay Code: ALC+, Evaluation Type: Evaluation A (Pre-1980)) was “active; positive”, the mutagenic call (Species/Cell Type: Aspergillus nidulans, Assay Type: Aneuploidy, chromosome aberrations, Assay Code: ASN+, Evaluation Type: Evaluation A (Pre-1980)) was “active; positive” and the mutagenic call (Species/Cell Type: Aspergillus nidulans, Assay Type: Mitotic recombination, Assay Code: ASG-, Evaluation Type: Evaluation A (Pre-1980)) was “inactive; negative”. The mutagenic call (Species/Cell Type: Escherichia coli WP2, Assay Type: Tryptophan reverse gene mutation, Assay Code: WP2T, Evaluation Type: Evaluation A (Pre-1980)) was “no conclusion”, the mutagenic call (Species/Cell Type: Escherichia coli WP2 UVRA, Assay Type: Tryptophan reverse gene mutation, Assay Code: WPU+, Evaluation Type: Evaluation A (Pre-1980)) was “active; positive” and the mutagenic call (Species/Cell Type: Saccharomyces cerevisiae, Assay Type: Mitotic recombination or gene conversion, Assay Code: YEC-, Evaluation Type: Evaluation A (Pre-1980)) was “inactive; negative”. For the same compound, the mutagenic call (Species/Cell Type: Salmonella typhimurium, Assay Type: Forward and reverse gene mutation, host-mediated assay, Assay Code: HMA-, Evaluation Type: Evaluation A (Pre-1980)) was “inactive; negative”.

For `Cc1cn([C@H]2CC[C@@H](COP(=O)(O)OP(=O)(O)OP(=O)(O)O)O2)c(=O)[nH]c1=O`, the mutagenic call [2] was “no conclusion”.

For `c1ccc(NNc2ccccc2)cc1`, the call [1] was “active; positive”.

For `Cc1ccc2c(ccc3c4c(ccc32)C(=O)CC4)c1`, the mutagenic call (Species/Cell Type: Salmonella typhimurium (one or more of the five standard strains: TA98, TA100, TA1535, TA1537, and TA1538), Assay Type: Histidine reverse gene mutation, Ames assay, Assay Code: SALT, Evaluation Type: Evaluation A (Pre-1980)) was “no conclusion”.

`CCC=O` was tested, and the mutagenic call (Species/Cell Type: Human lymphocytes, Assay Type: Sister-chromatid exchange (SCE) in vitro, Assay Code: SCL+, Evaluation Type: Evaluation B (Post-1980)) was “active; positive” and the mutagenic call (Species/Cell Type: Human, Assay Type: Sister-chromatid exchange (SCE) in vitro, Assay Code: SC1+, Evaluation Type: Evaluation B (Post-1980)) was “active; positive”.
